Entries after “also recorded” stand apart in the source; their conditions may differ. Read-outs that look alike come from different tables or passages of the source.
Key:
MLL-AF9 cells [1] = assay: MLL-AF9 viability under chemotherapy with or w/o MS-5 stromal layer, transwell inserts and CBX (7AAD FACS); format: cell-based, mouse
Text: Viability was detected via GFP expression and 7AAD exclusion.
To test this hypothesis, we evaluated the response of MLL-AF9 leukemic cells to chemotherapy in vitro, with and without supporting bone marrow stromal cells using time-lapse video microscopy combined with flow cytometry. […] MS-5 are murine bone-marrow stromal cells that were previously shown to support hematopoietic stem and progenitor cells (Itoh, et al., Experimental Hematology 21, 145-153 (1989) and Schajnovitz, et al., Nature Immunology 12, 391-8 (2011)). […] In order to distinguish between Stromal-leukemic (heterotypic) interactions and leukemic-leukemic (homotypic) interactions, we separated the MLL-AF9 from the stroma by transwell inserts, to restrict heterotypic interactions while allowing homotypic interactions.
Since adhesion interactions of hematopoietic cells are commonly accompanied with intercellular communication, we then tested the potential role of gap junctions activity in drug resistance. Gap junction intercellular channels, which are homo- and hetero-hexamers of connexin proteins, facilitate intercellular communication between contacting cells via the passage of secondary messengers, such as calcium and cAMP^17.

MLL-AF9 cells [2] = assay: Viability of MLL-AF9 cells exposed to CBX for 16 hours (7AAD FACS); format: cell-based, mouse; design: MLL-AF9 cell death: dose or concentration left out as unconfirmed
Protocol: (§1) Cells were distinguished by Cd45.1/CD45.2 expression and cell viability was determined by % of 7AAD-negative cells, in FACS analysis. (*p<0.01).
(§2) We then asked how blockage of gap junction intercellular communication affects AML cells, without additional treatment. […] In order to exclude the possibility of clone specific effects, we have repeated the experiments with a different MLL-AF9 clone, generated independently, and also included HoxA9/Meis1 AML cells that represent a different type of AML.

[3] = tested on: primary bone marrow leukocytes or primary peripheral blood leukocytes; assay: Viability of normal primary leukocytes exposed to CBX, alone or in 1:1 mixtures (7AAD FACS); format: cell-based, mouse; design: sensitivity of wild type primary leukocytes from BM or PB: dose or concentration left out as unconfirmed; details: for effect on normal counterparts in 1:1 mixtures with different AML cells: MLL-AF9 clone A/B or HoxA9/Meis1 mixtures
Protocol: Cells were distinguished by Cd45.1/CD45.2 expression and cell viability was determined by % of 7AAD-negative cells, in FACS analysis.
as §2

[4] = tested on: murine AML cells (MLL-AF9 clone A, MLL-AF9 clone B, HoxA9/Meis1 cells); assay: Viability of murine AML cells in 1:1 mixtures with normal leukocytes exposed to CBX for 16 hours; format: cell-based, mouse
Protocol: as §1
Cells were distinguished by CD45.1/CD45.2 expression and cell viability was determined by % of 7AAD-negative cells, in FACS analysis (*p<0.01).
as §2

[5] = tested on: MLL-AF9 cells (murine leukemic cancer stem cells); assay: Colony formation assay (CFU-C) on MLL-AF9 cells; format: cell-based, mouse
[6] = tested on: bone marrow primary leukocytes (normal stem cells); assay: Colony formation assay (CFU-C) on bone marrow primary leukocytes; format: cell-based, mouse; details: increasing concentrations of carbenoxolone
primary MLL-AF9 cells = assay: Differentiation assay, Gr-1 and Mac-1 expression in primary MLL-AF9 cells; format: cell-based, mouse; design: dose or concentration left out as unconfirmed; details: CBX for 16 hours; for differentiation of MLL-AF9 cells: Gr-1/Mac-1 expression
Protocol: Cell viability was determined by % of 7AAD-negative cells, in FACS analysis. (*p<0.01).
MLL-AF9 AML cells are undifferentiated myeloid progenitors that express both Gr-1 and Mac-1 antigens, whereas mature myeloid cells express either Gr-1 (granulocytes) or Mac-1 (macrophages).

[7] = tested on: freshly isolated primary human leukocytes; assay: Neutrophil differentiation (CD66b+/CD14-) by FACS in primary human leukocytes; format: cell-based; details: 16 hours
[8] = tested on: freshly isolated primary non-leukemic normal human leukocytes; assay: Colony formation assay (CFU-C) on normal human leukocytes; format: cell-based
[9] = tested on: normal bone marrow mononuclear cells (BM-MNC); assay: Normal bone marrow mononuclear cells in 1:1 mixture with MLL-AF9 cells after CBX; format: cell-based, mouse; details: CBX vs PBS
[10] = tested on: Mac1 (CD11b, integrin αm) in MLL-AF9 cells; assay: Mac1 expression in CBX treated mice leukemic cells; format: cell-based, mouse; details: 7AAD-negative MLL-AF9 cells undergoing apoptosis
[11] = tested on: Mac1 in human leukemic cell lines U937, HL60 and THP1; assay: Myelo-marker flow cytometry in CBX-treated human leukemic cell lines; format: cell-based; details: human leukemias, CBX 16 h
Text: FIGS. 34A-34D are bar graphs quantifying myelo-markers CD11b (FIG. 34A), CD14+ (FIG. 34B), CD66b+ (FIG. 34C), and CD66+/CD14+ (FIG. 34D) in CBX-treated primary normal human leukocytes as compared to CBX-treated human leukemic cell lines U937, HL60 and THP1.

MLL-AF9 leukemia = tested on: MLL-AF9 leukemia; design: autopsy finding: dose or concentration left out as unconfirmed
gap junctions = details: 100 μM; cited from earlier work
[12] = CBX at greater than or equal to 100 μM, 16 hours
[13] = 75 mg/kg CBX in combination with chemotherapy

CC1(C)[C@@H](OC(=O)CCC(=O)O)CC[C@]2(C)[C@H]3C(=O)C=C4[C@@H]5C[C@@](C)(C(=O)O)CC[C@]5(C)CC[C@@]4(C)[C@]3(C)CC[C@@H]12 [CBX, Carbenoxolone]
stroma-mediated drug resistance (MLL-AF9 cells [1]; 25 nM cytarabine and 10 nM doxorubicin as chemo, 16 hours): overcomes stroma-mediated drug resistance
eradication (MLL-AF9 cells [1]; co-cultures separated with transwell inserts, CBX + chemotherapy): more than 90%
MLL-AF9 cells eradicated (MLL-AF9 cells [1]; coculture with MS-5, 100 μM CBX 20 minutes before induction chemotherapy): ~90%
cells eradicated (MLL-AF9 cells [2]; 1001 μM CBX for 16 hours, CBX alone): ~20%
eradication of MLL-AF9 leukemia (MLL-AF9 cells [2]; [12]): eradication of MLL-AF9 leukemia
MLL-AF9 cell death (MLL-AF9 cells [2]; CBX, 16 hours): ~70%
eradication of MLL-AF9 cells in 1:1 mixture with normal BM leukocytes (MLL-AF9 cells [2]; increasing CBX up to 400 μM, 16 hours): selectively eradicates
cytotoxic effects on normal cells [3]: no cytotoxic effects
effect on normal BM leukocytes in 1:1 mixture with MLL-AF9 ([3]; CBX as high as 400 μM, 16 hours): without affecting the normal cells
eradication of normal blood cells [3, 12]: not the eradication of normal blood cells
sensitivity of wild type primary leukocytes from BM or PB ([3]; CBX even at high concentration, 16 hours): not sensitive
effect on normal counterparts in 1:1 mixtures with different AML cells ([3]; 16 hours): without affecting normal cells; also recorded: without affecting non-leukemic normal counterparts
effect on normal counterparts in 1:1 mixtures with different AML cells ([3]; 16 hours, listed as carbenoxolone): without affecting non-leukemic normal counterparts
eradication of different murine AML cells [4]: selectively eradicates
eradication of different murine AML cells ([4]; listed as Carbenoxolone): selective eradication
eradication of different murine AML cells ([4]; listed as carbenoxolone): selectively eradicates
effect on malignant vs. normal immature stem and progenitor cells (CFU-C) ([5]; CBX at greater than or equal to 50 μM): differential effect
effect on murine leukemic cancer stem cells (CFU-C) ([5]; increasing concentrations of carbenoxolone): eradicates murine leukemic cancer stem cells
effect on normal stem cells (CFU-C) [6]: inducing proliferation of normal stem cells
toxicity to MLL-AF9 cells (primary MLL-AF9 cells): not toxic to the cells
differentiation of MLL-AF9 cells (primary MLL-AF9 cells): induces their differentiation into mature granulocytes
differentiation of MLL-AF9 cells (primary MLL-AF9 cells; listed as carbenoxolone): promotes differentiation of AML cells into short-lived granulocytes
neutrophil differentiation (CD66b+/CD14−) [7]: does not induce neutrophil differentiation
effect on normal progenitors (CFU-C) ([8]; CBX 100 μM): induces proliferation of normal progenitors
effect on normal human stem and progenitor cells (CFU-C) ([8]; increasing concentrations): inducing proliferation of normal human stem and progenitor cells
replenishment of normal healthy cells [9]: enhances the replenishment of normal healthy cells
Mac1 (CD11b) expression [10]: downregulated
Mac1 expression [11]: downregulated
CBX-treated mice survived (MLL-AF9 leukemia; 25 mg/kg CBX alone or in combination with induction chemotherapy): 40%-60%
survival vs PBS and chemotherapy controls (MLL-AF9 leukemia; 25 mg/kg CBX in combination with induction chemotherapy): no statistically significant difference in survival
CBX-treated mice survived (MLL-AF9 leukemia; 50 mg/kg CBX alone): 20%
survival (MLL-AF9 leukemia; 50 mg/kg CBX alone): early mortality with no statistically significant difference
survival vs PBS and chemotherapy controls (MLL-AF9 leukemia; 50 mg/kg CBX in combination with chemotherapy): significant increased survival
survival vs PBS controls (MLL-AF9 leukemia; 75 mg/kg CBX alone): significant increased survival
CBX-treated mice survived (MLL-AF9 leukemia; [13]): 20%
survival (MLL-AF9 leukemia; [13]): early mortality with no statistically significant difference
adverse effect of prolonged administration (MLL-AF9 leukemia; SC, daily, 14 days): lethal pseudo-hyperadlosteronism with no sign of leukemia
autopsy, signs of leukemia (MLL-AF9 leukemia; chemotherapy plus 50 mg/kg CBX): no signs of leukemia
autopsy finding (MLL-AF9 leukemia; mouse that died at day 28 after CBX treatment): gastric edema
adverse effect of chronic systemic exposure (MLL-AF9 leukemia; mouse, in vivo): acute lethal pseudo-hyperaldosteronism in some case
early mortality (MLL-AF9 leukemia; mouse, in vivo): early mortality due to acute lethal pseudo-hyperadlosteronism
cause of early mortality (MLL-AF9 leukemia; mouse, in vivo, sc): most likely induced by acute pseudo-hyperaldosteronism, and not by leukemia
survival (MLL-AF9 leukemia; mouse, in vivo, sc, 50 mg/kg): prolonged survival
survival (MLL-AF9 leukemia; mouse, in vivo, sc, 75 mg/kg): prolonged survival
block of cell-cell communication (gap junctions): efficiently blocks cell-cell communication
cell viability (gap junctions): without affecting cell viability

Reference: patent publication US20160367578A1, “METHODS AND COMPOSITIONS FOR ERADICATING LEUKEMIC CELLS” (priority 2013, published 2016)
